Measured values: US20050288247A1, “Inducible inactivation of synaptic transmission” (Cold Spring Harbor Laboratory, priority 2004, published 2005)

What was measured:
[1] = system: synaptic transmission of cortical neurons in cultured brain slices; experiment: Evoked EPSCs in cultured brain slices infected with adenovirus-based VAMP MIST construct; assay type: cell-based
Description: We first tested the VAMP MIST construct in cultured brain slices. The adenovirus-based VAMP MIST construct was used to infect cortical neurons in cultured brain slices. Synaptic transmission was evoked with extracellular stimulation.

[2] = system: synaptic transmission in acute cortical brain slices; experiment: Whole cell EPSC measurements in layer 2 pyramidal neurons in acute brain slices; assay type: cell-based, mice
Description: We further characterized CID-dependent inactivation of synaptic transmission using whole cell measurements of EPSC in layer (L) 2 pyramidal neurons in acute brain slices. MIST constructs were introduced into L 3 cells in vivo using in utero viral vector mediated gene delivery (VAMP/Syb MIST) or electroporation (Sph-StxTM MIST). Synaptic transmission was evoked with an extracellular stimulation electrode placed in a band of transfected/infected neurons, below (within 200 μm) the recording pipette.
Cortical brain slices (300 μm thick) were prepared from young mice (postnatal day 9-14) using a vibrating-blade microtome (VT1000S, Leica Microsystems). Chilled cutting solution contained 110 mM choline chloride, 25 mM NaHCO3, 25 mM D-glucose, 11.6 mM sodium ascorbate, 7 mM MgSO4, 3.1 mM sodium pyruvate, 2.5 mM KCl, 1.25 mM NaH2PO4, and 0.5 mM CaCl2. Slices were then transferred to artificial cerebrospinal fluid (“ACSF”) containing 127 mM NaCl, 25 mM NaHCO3, 25 mM D-glucose, 2.5 mM KCl, 2 mM MgCl2,1 mM CaCl2, and 1.25 mM NaH2PO4, aerated with 95% O2/5% CO2. Slices in ACSF were first incubated at 34° C. for 0.5 hr, then maintained at room temperature prior to use. For recordings, ACSF contained 4 mM MgCl2, 4 mM CaCl2 and […] CPP.
Neurons were visualized with infrared differential interference contrast optics, and patched using borosilicate electrodes (resistances, 4-7 MΩ). Access resistances were in the range 10-30 MΩ. Intracellular solution contained 120 mM CsMeSO3, 20 mM CsCl, 4 mM NaCl, 10 mM HEPES, 10 mM BAPTA, 4 mM Mg2ATP, and 0.3 mM Na2GTP, 14 mM sodium phosphocreatine, 3 mM ascorbate, and 0.1 Alexa-594 (Molecular Probes); pH was adjusted to 7.25 with CsOH. Excitatory currents were measured at a holding potential of −65 mV, close to reversal for fast inhibition. MIST-expressing neurons were stimulated with tungsten bipolar electrode in the middle of transfected region, and monosynaptic responses were recorded from cells within […]. Responses were amplified (Multiclamp, Axon Instruments), filtered at 1 kHz, and digitized at 10 kHz. […]

CC[C@H](C(=O)N1CCCC[C@H]1C(=O)O[C@H](CCc1ccc(OC)c(OC)c1)c1cccc(OCC(=O)NCC(CNC(=O)COc2cccc([C@@H](CCc3ccc(OC)c(OC)c3)OC(=O)[C@@H]3CCCCN3C(=O)[C@@H](CC)c3cc(OC)c(OC)c(OC)c3)c2)CN(C)C)c1)c1cc(OC)c(OC)c(OC)c1 [AP20187]
amplitudes of monosynaptic EPSC and network discharge ([1]; 20 nM AP20187 in DMSO added to the bath, VAMP MIST infected slices): rapid decrease
amplitude of monosynaptic EPSCs ([2]; bath application 100 nM AP20187, VAMP/Syb MIST): rapid decrease

CC[C@H](C(=O)N1CCCCC1C(=O)O[C@H](CCc1ccc(OC)c(OC)c1)c1cccc(OCC(=O)NCCCN(C)C)c1)c1cc(OC)c(OC)c(OC)c1 (some centres unmarked) [AP21998]
recovery of monosynaptic EPSC and network discharge ([1]; 200 nM AP21998 reverser after homodimerizer): rapid recovery
recovery of synaptic response with reverser ([2]; excess of monomeric reverser, 5 μM AP21998): rapid partial recovery

AP21967
amplitude of monosynaptic EPSCs ([2]; bath application 500 nM AP21967, Sph-StxTM MIST): rapid decrease
